Source: PubChem BioAssay AID248 (DTP/NCI, 2004)
Values joined by “and” are separate entries in the source; they are usually repeats but may differ in a detail not shown here. Equal entries are not always repeated. Toxic doses and inconclusive results are not listed. Cut-off read from the data, not from the text of the source: active = T/C of 150% or more; inactive = T/C below 125%. Peptide text beside a SMILES is read from it. * marks the point of attachment. Cbz = O=C(OCc1ccccc1)*

System: L1210 leukemia ip in BDF1 mice, survival T/C
Assay: NCI In Vivo Anticancer Drug Screen. Data for tumor model L1210 Leukemia (intraperitoneal) in B6D2F1 (BDF1) mice
Conditions: higher = longer survival
Procedure, shortened: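 Transplanted-tumor mice were given test agent; controls received vehicle only. Survival readings from the two groups were divided (treated over control).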

[1] = endpoint: mean survival time, dose: 100.0 mg/kg/injection, schedule: Q01DX009 (ip), vehicle: Klucel (hydroxypropylcellulose) (HPC)
[2] = endpoint: mean survival time, dose: 200.0 mg/kg/injection, schedule: Q01DX009 (ip), vehicle: Klucel (hydroxypropylcellulose) (HPC)
[3] = endpoint: mean survival time, dose: 400.0 mg/kg/injection, schedule: Q01DX009 (ip), vehicle: Klucel (hydroxypropylcellulose) (HPC)
[4] = endpoint: mean survival time, dose: 100.0 mg/kg/injection, schedule: Q04DX003 (ip), vehicle: saline with Tween-80
[5] = endpoint: mean survival time, dose: 200.0 mg/kg/injection, schedule: Q04DX003 (ip), vehicle: saline with Tween-80
[6] = endpoint: mean survival time, dose: 400.0 mg/kg/injection, schedule: Q04DX003 (ip), vehicle: saline with Tween-80
[7] = endpoint: mean survival time, dose: 100.0 mg/kg/injection, schedule: Q01DX009 (ip), vehicle: saline with Tween-80
[8] = endpoint: mean survival time, dose: 200.0 mg/kg/injection, schedule: Q01DX009 (ip), vehicle: saline with Tween-80
[9] = endpoint: mean survival time, dose: 400.0 mg/kg/injection, schedule: Q01DX009 (ip), vehicle: saline with Tween-80
[10] = endpoint: mean survival time, dose: 100.0 mg/kg/injection, schedule: Q04DX003 (ip), vehicle: saline
[11] = endpoint: mean survival time, dose: 400.0 mg/kg/injection, schedule: Q04DX003 (ip), vehicle: saline
[12] = endpoint: mean survival time, dose: 200.0 mg/kg/injection, schedule: Q04DX003 (ip), vehicle: saline
[13] = endpoint: mean survival time, dose: 100.0 mg/kg/injection, schedule: Q04DX002 (ip), vehicle: saline
[14] = endpoint: mean survival time, dose: 200.0 mg/kg/injection, schedule: Q04DX002 (ip), vehicle: saline

Measured: T/C

CCCCCCCCCCCCCCCCCCOc1ccccn1
inactive: [1] 97 % of control | endpoint: mean survival time, dose: 100.0 mg/kg/injection, schedule: Q04DX003 (ip), vehicle: Klucel (hydroxypropylcellulose) (HPC) 98 % of control | [2] 96 % of control | endpoint: mean survival time, dose: 200.0 mg/kg/injection, schedule: Q04DX003 (ip), vehicle: Klucel (hydroxypropylcellulose) (HPC) 93 % of control | [3] 91 % of control | endpoint: mean survival time, dose: 400.0 mg/kg/injection, schedule: Q04DX003 (ip), vehicle: Klucel (hydroxypropylcellulose) (HPC) 92 % of control

CC(=O)/C(C)=N/Nc1ccccc1
inactive: [4] 101 % of control | [5] 106 % of control | [6] 106 % of control

CCCCC[n+]1cccc(C#N)c1
inactive: endpoint: mean survival time, dose: 37.5 mg/kg/injection, schedule: Q04DX003 (ip), vehicle: saline 100 % of control | endpoint: mean survival time, dose: 75.0 mg/kg/injection, schedule: Q01DX001 (ip), vehicle: saline 96 % of control | endpoint: mean survival time, dose: 75.0 mg/kg/injection, schedule: Q04DX003 (ip), vehicle: saline 91 % of control | endpoint: mean survival time, dose: 150.0 mg/kg/injection, schedule: Q01DX001 (ip), vehicle: saline 100 % of control | endpoint: mean survival time, dose: 150.0 mg/kg/injection, schedule: Q04DX003 (ip), vehicle: saline 100 % of control

CC(NC(=O)C(C)NC(=O)OCc1ccccc1)C(N)=O (stereo not drawn) (Cbz-Ala-Ala-NH2; configuration not given here)
inactive: [7] 88 % of control | [8] 88 % of control | [9] 88 % of control

CC1(C)SCC(C(=O)N2CCCC2C(=O)OC2CCCCC2)N1C=O (centres undefined)
inactive: [10] 92 % of control | [11] 97 % of control

O=C(O)CC(Nc1ccc([N+](=O)[O-])cc1[N+](=O)[O-])C(=O)O (centres undefined)
inactive: [10] 96 % of control | [12] 100 % of control | [11] 120 % of control

O=C(O)COc1ccccc1F
inactive: endpoint: mean survival time, dose: 100.0 mg/kg/injection, schedule: Q04DX002 (ip), vehicle: Klucel (hydroxypropylcellulose) (HPC) 113 % of control | endpoint: mean survival time, dose: 200.0 mg/kg/injection, schedule: Q04DX002 (ip), vehicle: Klucel (hydroxypropylcellulose) (HPC) 98 % of control | endpoint: mean survival time, dose: 400.0 mg/kg/injection, schedule: Q04DX002 (ip), vehicle: Klucel (hydroxypropylcellulose) (HPC) 98 % of control

N=C(N)c1ccc(Nc2ccc(C(=N)N)cc2)cc1
inactive: endpoint: mean survival time, dose: 3.0 mg/kg/injection, schedule: Q01DX010 (ip), vehicle: saline 95 % of control and 91 % of control | endpoint: mean survival time, dose: 6.0 mg/kg/injection, schedule: Q01DX010 (ip), vehicle: saline 95 % of control and 91 % of control | endpoint: mean survival time, dose: 12.0 mg/kg/injection, schedule: Q01DX010 (ip), vehicle: saline 94 % of control and 97 % of control | endpoint: mean survival time, dose: 15.0 mg/kg/injection, schedule: Q02DX010 (ip), vehicle: carboxymethylcellulose (CMC) 99 % of control | endpoint: mean survival time, dose: 24.0 mg/kg/injection, schedule: Q01DX010 (ip), vehicle: saline 89 % of control and 91 % of control | endpoint: mean survival time, dose: 30.0 mg/kg/injection, schedule: Q02DX010 (ip), vehicle: carboxymethylcellulose (CMC) 103 % of control | endpoint: mean survival time, dose: 44.0 mg/kg/injection, schedule: Q02DX010 (ip), vehicle: carboxymethylcellulose (CMC) 89 % of control | endpoint: mean survival time, dose: 47.0 mg/kg/injection, schedule: Q01DX001 (ip), vehicle: water 97 % of control | endpoint: mean survival time, dose: 66.0 mg/kg/injection, schedule: Q02DX010 (ip), vehicle: carboxymethylcellulose (CMC) 77 % of control | endpoint: median survival time, dose: 6.0 mg/kg/injection, schedule: Q01DX009 (ip), vehicle: saline 105 % of control and 112 % of control | endpoint: median survival time, dose: 12.0 mg/kg/injection, schedule: Q01DX009 (ip), vehicle: saline 112 % of control | endpoint: median survival time, dose: 24.0 mg/kg/injection, schedule: Q01DX009 (ip), vehicle: saline 87 % of control

Clc1ccc(C2OCCO2)cc1
inactive: [1] 94 % of control | [2] 95 % of control | [3] 107 % of control

Brc1ccc(C2=CSC3=NCCN23)cc1
inactive: endpoint: mean survival time, dose: 25.0 mg/kg/injection, schedule: Q04DX003 (ip), vehicle: Klucel (hydroxypropylcellulose) (HPC) 96 % of control | endpoint: mean survival time, dose: 50.0 mg/kg/injection, schedule: Q04DX003 (ip), vehicle: Klucel (hydroxypropylcellulose) (HPC) 96 % of control

CC1OC(n2ccc(NC(=O)c3ccc(NC(=O)C(C)(N)CO)cc3)nc2=O)CCC1OC1OC(C)C(N(C)C)C(O)C1O (centres undefined)
inactive: endpoint: mean survival time, dose: 100.0 mg/kg/injection, schedule: Q01DX001 (ip), vehicle: carboxymethylcellulose (CMC) 106 % of control | endpoint: mean survival time, dose: 200.0 mg/kg/injection, schedule: Q01DX001 (ip), vehicle: carboxymethylcellulose (CMC) 100 % of control | endpoint: mean survival time, dose: 400.0 mg/kg/injection, schedule: Q01DX001 (ip), vehicle: carboxymethylcellulose (CMC) 106 % of control

O=C(O)/C=C\C(=O)Nc1ccccc1Cl
inactive: [1] 102 % of control | [2] 100 % of control | [3] 97 % of control

Cc1ccc(C2=NN(c3ccccc3)C(c3ccccc3)C2NC2CCCCC2)cc1 (centres undefined)
inactive: endpoint: mean survival time, dose: 100.0 mg/kg/injection, schedule: Q01DX009 (ip), vehicle: acetone 86 % of control | endpoint: mean survival time, dose: 400.0 mg/kg/injection, schedule: Q01DX009 (ip), vehicle: acetone 100 % of control

CCCCCCC1CCC(O)C1CCCCCCC(=O)O (centres undefined)
inactive: endpoint: mean survival time, dose: 50.0 mg/kg/injection, schedule: Q04DX002 (ip), vehicle: saline 98 % of control | [13] 91 % of control | [14] 91 % of control

C=CCN(CC=C)c1nc(Oc2ccccc2)nc(Oc2ccccc2)n1
inactive: endpoint: mean survival time, dose: 25.6 mg/kg/injection, schedule: Q04DX002 (ip), vehicle: saline with Tween-80 104 % of control | endpoint: mean survival time, dose: 64.0 mg/kg/injection, schedule: Q04DX002 (ip), vehicle: saline with Tween-80 101 % of control | [4] 89 % of control | endpoint: mean survival time, dose: 160.0 mg/kg/injection, schedule: Q04DX002 (ip), vehicle: saline with Tween-80 93 % of control | [5] 92 % of control | endpoint: mean survival time, dose: 400.0 mg/kg/injection, schedule: Q04DX002 (ip), vehicle: saline with Tween-80 89 % of control | [6] 93 % of control

O=C(CCN1C(=O)CCC1=O)NCCc1ccccc1
inactive: [7] 97 % of control | [8] 98 % of control | [9] 101 % of control

COc1ccc(CN(CC(=O)O)S(C)(=O)=O)cc1
inactive: endpoint: mean survival time, dose: 100.0 mg/kg/injection, schedule: Q01DX009 (ip), vehicle: other 110 % of control | endpoint: mean survival time, dose: 100.0 mg/kg/injection, schedule: Q04DX003 (ip), vehicle: other 90 % of control | endpoint: mean survival time, dose: 200.0 mg/kg/injection, schedule: Q01DX009 (ip), vehicle: other 107 % of control | endpoint: mean survival time, dose: 200.0 mg/kg/injection, schedule: Q04DX003 (ip), vehicle: other 98 % of control | endpoint: mean survival time, dose: 400.0 mg/kg/injection, schedule: Q01DX009 (ip), vehicle: other 111 % of control | endpoint: mean survival time, dose: 400.0 mg/kg/injection, schedule: Q04DX003 (ip), vehicle: other 95 % of control

CCCCCCCCCOc1ccc(C=Nc2ccc(CC)cc2)cc1
inactive: endpoint: mean survival time, dose: 12.5 mg/kg/injection, schedule: Q01DX009 (ip), vehicle: Klucel (hydroxypropylcellulose) (HPC) 92 % of control | endpoint: mean survival time, dose: 25.0 mg/kg/injection, schedule: Q01DX009 (ip), vehicle: Klucel (hydroxypropylcellulose) (HPC) 90 % of control | endpoint: mean survival time, dose: 50.0 mg/kg/injection, schedule: Q01DX009 (ip), vehicle: Klucel (hydroxypropylcellulose) (HPC) 92 % of control

Cn1c(=O)c2c(ncn2CCSc2nnnc3ccccc23)n(C)c1=O
inactive: [10] 98 % of control | [12] 93 % of control | [11] 94 % of control

CSc1ccc(NC(=S)NCCc2ccccc2)cc1
inactive: [1] 114 % of control | [2] 97 % of control | [3] 102 % of control

O=C1OC(c2ccc(Cl)cc2)=N/C1=C\c1c(Cl)cccc1Cl
inactive: [13] 93 % of control | [14] 107 % of control | endpoint: mean survival time, dose: 400.0 mg/kg/injection, schedule: Q04DX002 (ip), vehicle: saline 118 % of control

C=C(C)CC1(CC2SCCCS2)SCCCS1
inactive: endpoint: mean survival time, dose: 25.0 mg/kg/injection, schedule: Q04DX002 (ip), vehicle: saline with Tween-80 98 % of control | endpoint: mean survival time, dose: 50.0 mg/kg/injection, schedule: Q04DX002 (ip), vehicle: saline with Tween-80 106 % of control | endpoint: mean survival time, dose: 100.0 mg/kg/injection, schedule: Q04DX002 (ip), vehicle: saline with Tween-80 88 % of control | endpoint: mean survival time, dose: 200.0 mg/kg/injection, schedule: Q04DX002 (ip), vehicle: saline with Tween-80 98 % of control

COC(=O)C(N)Cc1ccc(OC(c2ccccc2)(c2ccccc2)c2ccccc2)cc1 (centres undefined)
inactive: endpoint: mean survival time, dose: 50.0 mg/kg/injection, schedule: Q01DX009 (ip), vehicle: saline 101 % of control | endpoint: mean survival time, dose: 100.0 mg/kg/injection, schedule: Q01DX009 (ip), vehicle: saline 103 % of control | endpoint: mean survival time, dose: 200.0 mg/kg/injection, schedule: Q01DX009 (ip), vehicle: saline 100 % of control | endpoint: mean survival time, dose: 400.0 mg/kg/injection, schedule: Q01DX009 (ip), vehicle: saline 100 % of control
